Structures are written as SMILES. Read-outs that look alike come from different tables or passages of the source.

Data set [1] addresses T1, full-length, proteolytically inactive Taspase 1 (Homo sapiens, UniProt Q9H6P5, D233A/T234A).
T1 sequence (Q9H6P5 1-420 D233A/T234A): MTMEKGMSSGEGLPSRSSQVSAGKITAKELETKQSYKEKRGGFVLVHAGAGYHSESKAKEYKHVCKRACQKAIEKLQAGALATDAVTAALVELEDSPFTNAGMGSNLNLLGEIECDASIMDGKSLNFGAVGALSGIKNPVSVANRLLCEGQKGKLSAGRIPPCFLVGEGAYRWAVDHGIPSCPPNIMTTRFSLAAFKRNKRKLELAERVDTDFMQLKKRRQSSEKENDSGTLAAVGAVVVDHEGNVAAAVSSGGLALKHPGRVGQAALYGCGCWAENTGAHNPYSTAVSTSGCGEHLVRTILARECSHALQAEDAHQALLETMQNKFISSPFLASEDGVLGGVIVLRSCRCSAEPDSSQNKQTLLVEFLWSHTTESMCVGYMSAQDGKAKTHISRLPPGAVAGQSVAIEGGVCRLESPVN
Put plainly: Surface plasmon resonance on immobilized full-length, inactive Taspase 1. The following applies: for ka / kd: Table S3, n = 2. The data set is classed as binding. The procedure:
SPR measurements were conducted as described.[9,10]
First, we utilized an established surface plasmon resonance (SPR) assay to evaluate the overall binding of our ligands to Taspase 1 (Fig. 3).[10,54] […] High affinities were observed, with KD values in the single micromolar range (Fig. 3, and Table S2).
Fig. 3 Photoswitchable tweezer constructs bind Taspase 1 with SPR binding affinities in the low micromolar range. […] Duplicate measurements were performed, with the respective curves shown in the same colour at different brightness levels (right). […] KD values (Table S2) were determined through kinetic evaluation by fitting the individual curves to a 1 : 1 binding model. Detailed SPR data are provided in the SI (Table S3). Composed with https://BioRender.com. […] No printed text gives the condition. In each entry the first value is the upper row and the second is the lower row.
Supplementary Table S3. Kinetic parameters of photoswitchable tweezer constructs as determined by SPR (see Fig. 3). Values were derived from fitted sensorgrams with a 1:1 two state binding model from n = 2 measurements for the indicated constructs. Analysis was performed using the Trace Drawer software 1.9.2 (TraceDrawer Software, Sweden). […]

Data set [2] in a line: Photoisomerization: photostationary states by 1H NMR, switching cycles by UV-vis. The data set is classed as physicochemical. The following applies: for PSS E→Z, photostationary state: UV 365 nm; for PSS Z→E, photostationary state: green light 520 nm. Here is the method: Tweezer constructs were synthesized as an E/Z mixture, with a strong preference for the thermodynamically stable E isomer. For photoisomerization, UV-vis spectra of TWAAP and TWAB (50 μM in water) were recorded in their initial state. The constructs were then isomerized to the Z isomer with UV light (λ = 365 nm, 1 min) and back to the E isomer with green light (λ = 520 nm, 5 min). Two light sources were used: UV LED HighPower-LED with 3 W of λ = 365 nm (LED Engin Inc., San Jose, California, US) and a LSC-G HighPower-LED with 3 W of λ = 520 nm (Cree Inc., Durham, North Carolina, US). UV-vis spectroscopy was routinely employed to analyze the tweezer constructs, serving as the method of choice to monitor configurational integrity after multiple switching cycles. More than 10 switching cycles were performed without any loss of configurational integrity. The UV-vis spectra were recorded with a JASCO V-650 double-beam spectrophotometer (JASCO).
The photophysical properties of AAP tweezers TWAAP0-4 as well as those of AZO tweezers TWAB1-2 were consistent with previous reports on these photoswitches. […] The two isomers are easily distinguished by the significant difference in their absorption bands (Fig. 2 and Fig. S4a, b). […] Irradiation with green light further increases the concentration of the E isomer, as confirmed by both UV/vis and NMR spectra. The switching process can be repeated for over 10 cycles without loss of configurational integrity or photodegradation of the tweezer. […] (Fig. 2 and Table S1).
Supplementary Table S1. Photostationary states (PSSE→Z and PSSZ→E) and half-life of Z isomers of
respectively. n.d., not determinable.
TW construct PSSE→Z [%] PSSZ→E [%] […]

Data set [3] has as its target T2, Cy5-labeled Taspase 1 loop (Homo sapiens, UniProt Q9H6P5).
T2 construct: Cy5-labeled NLS-bearing loop peptide (aa S181-D233); purchased GeneCust; host or cells: synthetic peptide
T2 sequence (Q9H6P5 181-233): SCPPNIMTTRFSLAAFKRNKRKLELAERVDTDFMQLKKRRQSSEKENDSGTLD
Description: Fluorescence titration of Cy5-labeled Taspase 1 loop. The data set is classed as binding. The following applies: for Kd: 1:1 binding model, n = 3, read-out: KD TW (fluorescence titration, loop). The procedure: Fluorescence titration was conducted with a Taspase 1 loop with an N-terminal […] synthesized by GeneCust (Sequence: Cy5-[…]; NLS in bold) as described.[9,10] The fluorescence anisotropy assay was modified based on previously established protocols.[51] Measurements were conducted using an FP-8300 JASCO fluorescence spectrometer (JASCO GmbH). […] Binding curves of the average data were fitted with GraphPad Prism 10.4 (GraphPad) using the quadratic binding equation for one-site specific binding model: [drawing 4] with r = anisotropy, r0 = anisotropy without protein, rmax = maximum anisotropy, F = fluorescent probe (Cy5-labeled peptide) concentration, x = titrant concentration, KD = dissociation constant. All fitting curves have R^2-values between 0.88 and 0.98.
Since Importin binding critically depends on the basic NLS clusters within the Taspase 1 loop, pull-down assays typically provide a reliable readout for tweezer interaction with the relevant lysine and arginine residues. Alternatively, loop binding can be evaluated through ligand titration experiments using a fluorescently labeled Taspase 1 loop (Fig. 5).[10] […] As a result, potential effects related to the orientation of the flexible loop within the context of the globular protein are not captured. Of note, the slight increase in signal at the highest compound concentration likely reflects non-specific effects such as weak autofluorescence, inner filter artifacts, or molecular crowding, highlighting limitations of the assay at this range. Despite these effects, the data points were retained to provide a complete representation of the assay response.
Fig. 5 TWAAP ligands directly address the Taspase 1 loop. Fluorescence titrations were performed using a Cy5-labeled Taspase 1 loop and switchable tweezers. […] Fluorescence intensity in solvent-treated samples was set to 100%, with ligand-treated samples normalized to this value. […] As a control, all ligands were added to Cy5 (without peptide) at their highest concentration, resulting in neglectable changes in fluorescence. Data represent the mean ± SD of three independent experiments. Composed with https://Biorender.com.

Setting [4] is: E enriched isomer, Table S2, read-out: KD (E).
The mark [5] stands for this setting: E isomer, ligand conc. 0.06 - 25 µM, Table S4, read-out: KD TW (SPR, full-length protein).
[6] abbreviates: Z enriched isomer, Table S2, read-out: KD (Z).
[7] abbreviates: Z isomer, ligand conc. 0.06 - 25 µM, Table S4, read-out: KD TW (SPR, full-length protein).

For the compound `Cc1nn(-c2ccc(-n3cc(CCOP(=O)(O)Oc4c5c(c(OP(=O)(O)O)c6c4C4CC6c6cc7c(cc64)C4CC7c6ccccc64)C4CC5c5cc6c(cc54)C4CC6c5ccccc54)nn3)cc2)c(C)c1N=Nc1ccc(-n2cc(CCOP(=O)(O)Oc3c4c(c(OP(=O)(O)O)c5c3C3CC5c5cc6c(cc53)C3CC6c5ccccc53)C3CC4c4cc5c(cc43)C3CC5c4ccccc43)nn2)cc1` [TWAAP0], the Kd in data set [1] (setting [4]) was found to be 710 nM; in data set [1] (setting [5]), 700 nM; in data set [1] (setting [6]), 2870 nM; in data set [1] (setting [7]), 2900 nM; in data set [3] (E isomer), 200 nM; in data set [3] (Z isomer), 300 nM. The SPR signal result in data set [1] (E isomer) and in data set [1] (Z isomer) was “approximately 300 μRIU” throughout. The “association rate constant (ka)” value in data set [1] (E isomer) is 1.04 × 10^3 M^1 s^1; in data set [1] (Z isomer), 1.12 × 10^3 M^1 s^1. In addition, the “dissociation rate constant (kd)” value came out at 0.000743 s⁻¹ in data set [1] (E isomer) and 0.00322 s⁻¹ in data set [1] (Z isomer). In addition, the ka in data set [1] (isomer E) came out at 1120 ± 34 M⁻¹ s⁻¹; in data set [1] (isomer Z) it was 1040 ± 20.5 M⁻¹ s⁻¹. This compound showed a kd in data set [1] (isomer E) of 0.00322 ± 7.17e-07 s⁻¹. Besides, the “PSS E→Z, photostationary state” value in data set [2] is reported as 87%. Moreover, in data set [2], the “PSS Z→E, photostationary state” value was determined as 89%.

For `Cc1nn(-c2ccc(-c3cn(CCOP(=O)(O)Oc4c5c(c(OP(=O)(O)O)c6c4C4CC6c6cc7c(cc64)C4CC7c6ccccc64)C4CC5c5cc6c(cc54)C4CC6c5ccccc54)nn3)cc2)c(C)c1N=Nc1ccc(-c2ccc(-c3cn(CCOP(=O)(O)Oc4c5c(c(OP(=O)(O)O)c6c4C4CC6c6cc7c(cc64)C4CC7c6ccccc64)C4CC5c5cc6c(cc54)C4CC6c5ccccc54)nn3)cc2)cc1` [TWAAP3], the Kd in data set [1] (setting [4]) stood at 4050 nM; in data set [1] (setting [5]), 4100 nM; in data set [1] (setting [6]), 2670 nM; in data set [1] (setting [7]), 2700 nM; in data set [3] (E isomer) it was 400 nM; in data set [3] (Z isomer), 600 nM. Besides, the results for the SPR signal entry in data set [1] (E isomer) and in data set [1] (Z isomer) were “approximately 120 μRIU” and “about 500 μRIU”, respectively. Further, the “association rate constant (ka)” value is listed as 3.81 × 10^3 M^1 s^1 in data set [1] (E isomer) and 9.57 × 10^2 M^1 s^1 in data set [1] (Z isomer). The “dissociation rate constant (kd)” value is recorded as 1.53 × 10^−2 s^1 in data set [1] (E isomer) and 2.56 × 10^−3 s^1 in data set [1] (Z isomer). The ka is 957 ± 56.1 M⁻¹ s⁻¹ in data set [1] (isomer E) and 3810 ± 2090 M⁻¹ s⁻¹ in data set [1] (isomer Z). The kd in data set [1] (isomer E) was 0.00256 ± 4.04e-06 s⁻¹; in data set [1] (isomer Z), 0.0153 ± 2.5e-05 s⁻¹. Also, in data set [2], the “PSS E→Z, photostationary state” value is given as 84%. Besides, in data set [2], the “PSS Z→E, photostationary state” value worked out at 92%.

On to `Cc1nn(-c2ccc(C#Cc3ccc(-c4cn(CCOP(=O)(O)Oc5c6c(c(OP(=O)(O)O)c7c5C5CC7c7cc8c(cc75)C5CC8c7ccccc75)C5CC6c6cc7c(cc65)C5CC7c6ccccc65)nn4)cc3)cc2)c(C)c1N=Nc1ccc(C#Cc2ccc(-c3cn(CCOP(=O)(O)Oc4c5c(c(OP(=O)(O)O)c6c4C4CC6c6cc7c(cc64)C4CC7c6ccccc64)C4CC5c5cc6c(cc54)C4CC6c5ccccc54)nn3)cc2)cc1` [TWAAP4], for which the Kd in data set [1] (setting [4]) came to 2900 nM; in data set [1] (setting [6]) it was 1960 nM; in data set [1] (setting [7]), 2000 nM; in data set [3] (E isomer), 800 nM; in data set [3] (Z isomer) it was 4900 nM. Also, the ka worked out at 4690 ± 1260 M⁻¹ s⁻¹ in data set [1] (isomer E) and 3340 ± 688 M⁻¹ s⁻¹ in data set [1] (isomer Z). Further, the kd in data set [1] (isomer E) came to 0.00918 ± 4.22e-06 s⁻¹; in data set [1] (isomer Z) it was 0.00967 ± 4.04e-06 s⁻¹. Also, the “PSS E→Z, photostationary state” value in data set [2] was found to be 67%. For the same compound, the “PSS Z→E, photostationary state” value in data set [2] is listed as 97%. In data set [3] (Z isomer), the “Loop binding, in words” value was “only a weak loop binder”.

With `O=P(O)(O)Oc1c2c(c(OP(=O)(O)OCCn3cc(-c4ccc(N=Nc5ccc(-c6cn(CCOP(=O)(O)Oc7c8c(c(OP(=O)(O)O)c9c7C7CC9c9cc%10c(cc97)C7CC%10c9ccccc97)C7CC8c8cc9c(cc87)C7CC9c8ccccc87)nn6)cc5)cc4)nn3)c3c1C1CC3c3cc4c(cc31)C1CC4c3ccccc31)C1CC2c2cc3c(cc21)C1CC3c2ccccc21` [TWAB1], the Kd in data set [1] (setting [4]) stood at 9320 nM; in data set [1] (setting [5]) it was 9300 nM; in data set [1] (setting [6]), 9200 nM. Besides, the ka in data set [1] (isomer E) was determined as 596 ± 116 M⁻¹ s⁻¹. The compound also came in with a kd in data set [1] (isomer E) of 0.000548 ± 2.4e-05 s⁻¹. For the same compound, the “PSS E→Z, photostationary state” value in data set [2] is 63%. The “PSS Z→E, photostationary state” value in data set [2] is 61%.

With `Cc1nn(Cc2cn(CCOP(=O)(O)Oc3c4c(c(OP(=O)(O)O)c5c3C3CC5c5cc6c(cc53)C3CC6c5ccccc53)C3CC4c4cc5c(cc43)C3CC5c4ccccc43)nn2)c(C)c1N=Nc1ccc(-c2cn(CCOP(=O)(O)Oc3c4c(c(OP(=O)(O)O)c5c3C3CC5c5cc6c(cc53)C3CC6c5ccccc53)C3CC4c4cc5c(cc43)C3CC5c4ccccc43)nn2)cc1` [TWAAP2], the Kd in data set [1] (setting [4]) turned out to be 5670 nM; in data set [1] (setting [5]), 5700 nM; in data set [1] (setting [6]) it was 4280 nM; in data set [1] (setting [7]), 4300 nM; in data set [3] (E isomer), 300 nM; in data set [3] (Z isomer), 300 nM. Also, the results for the ka in data set [1] (isomer E) and in data set [1] (isomer Z) were 1170 ± 96.4 M⁻¹ s⁻¹ and 750 ± 76.2 M⁻¹ s⁻¹, respectively. Moreover, the kd in data set [1] (isomer E) stood at 0.00501 ± 9.88e-07 s⁻¹; in data set [1] (isomer Z) it was 0.00426 ± 1.03e-06 s⁻¹. Moreover, in data set [2], the “PSS E→Z, photostationary state” value came to 94%. The “PSS Z→E, photostationary state” value in data set [2] was found to be 77%.

Source of the values: PMC12419465, “Photoresponsive molecular tweezers modulate Taspase 1 activity” (RSC Chemical Biology, 2025).
